Test results from PMC5027844 (Cancer cell, 2016).

Molecular target: ARF6 (Homo sapiens, UniProt P62330)
Assay: fluorometric nucleotide exchange assay
Type: biochemical

Chain of ARF6 (P62330 2-175): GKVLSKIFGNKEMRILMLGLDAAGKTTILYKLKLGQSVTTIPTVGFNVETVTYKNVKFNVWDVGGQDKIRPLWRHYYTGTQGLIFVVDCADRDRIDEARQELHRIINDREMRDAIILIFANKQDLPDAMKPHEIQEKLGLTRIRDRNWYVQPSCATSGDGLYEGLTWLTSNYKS

NAV-2729
IC50: 1000 nM
